According to PMC5025651, “Reprofiled anthelmintics abate hypervirulent stationary-phase Clostridium difficile” (Scientific Reports, 2016):
Values after ≈ are worked out from the molar mass of the structure shown.

Tests used:
P. aeruginosa PAO1 = assay: MIC by broth microdilution; type: cell-based; details: Pseudomonas aeruginosa; P. aeruginosa PAO1; CAMHB, aerobic; duplicate; read-out: MIC
S. epidermidis 1457 = assay: MIC by broth microdilution; type: cell-based; details: Staphylococcus epidermidis; S. epidermidis 1457; CAMHB, aerobic; duplicate; read-out: MIC
[1] = tested on: B. breve Strain EX336960VC19; assay: MIC by broth microdilution; type: cell-based; details: Bifidobacterium breve; B. breve EX336960VC19; LSM broth, anaerobic; duplicate; read-out: MIC
[2] = tested on: L. reuteri Strain CF48-3A; assay: MIC by broth microdilution; type: cell-based, Lactobacillus reuteri; details: Limosilactobacillus reuteri; L. reuteri CF48-3A; CAMHB with 5% laked horse blood, ~48 h; duplicate; read-out: MIC
P. distasonis ATCC 8503 = assay: MIC by broth microdilution; type: cell-based; details: Parabacteroides distasonis, ATCC8503; P. distasonis ATCC 8503; supplemented Brucella broth, anaerobic; duplicate; read-out: MIC
[3] = tested on: L. johnsonii Strain 135-1-CHN; assay: MIC by broth microdilution; type: cell-based; details: Lactobacillus johnsonii, STRAIN1351CHN; L. johnsonii 135-1-CHN; CAMHB with 5% laked horse blood, ~48 h; duplicate; read-out: MIC
[4] = tested on: C. difficile strain 630 (CD630, ATCC BAA-1382-FZ, ribotype 012); assay: MIC by broth microdilution; type: cell-based, Clostridium difficile
[5] = tested on: panel of obligate aerobes, facultative anaerobes and obligate anaerobes; assay: Antibacterial spectrum, MIC against a panel of bacteria; type: cell-based; details: whole panel of Table S3
[6] = tested on: B. longum subsp. longum Strain 44B; assay: MIC by broth microdilution; type: cell-based; details: Bifidobacterium longum; B. longum subsp. longum 44B; LSM broth, anaerobic; duplicate; read-out: MIC
[7] = tested on: C. clostridioforme ATCC 25537; assay: MIC by broth microdilution; type: cell-based, Clostridium clostridioforme; details: Clostridium, ATCC25537; C. clostridioforme ATCC 25537; BHIS, anaerobic; duplicate; read-out: MIC
B. subtilis ATCC 6051 = assay: MIC by broth microdilution; type: cell-based; details: Bacillus subtilis, ATCC6051; B. subtilis ATCC 6051; CAMHB, aerobic; duplicate; read-out: MIC
L. plantarum ATCC 8014 = assay: MIC by broth microdilution; type: cell-based; details: Lactiplantibacillus plantarum, ATCC8014; L. plantarum ATCC 8014; CAMHB with 5% laked horse blood, ~48 h; duplicate; read-out: MIC
S. aureus RN4220 = assay: MIC by broth microdilution; type: cell-based; details: Staphylococcus aureus, CAMHB, aerobic, duplicate
A. baumannii M2 = assay: MIC by broth microdilution; type: cell-based; details: Acinetobacter baumannii; A. baumannii M2; CAMHB, aerobic; duplicate; read-out: MIC
[8] = tested on: B. thetaiotaomicron ATCC 29148; assay: microbe, parasite or virus in culture; type: cell-based; details: Bacteroides thetaiotaomicron, ATCC29148; B. thetaiotaomicron ATCC 29148; supplemented Brucella broth, anaerobic; duplicate; read-out: MIC
[9] = tested on: C. difficile strain 4118 (CD4118, ATCC BAA-1870, ribotype 027); assay: MIC by broth microdilution; type: cell-based, Clostridium difficile
C. sporogenes ATCC 15579 = assay: MIC by broth microdilution; type: cell-based; details: Clostridium sporogenes, ATCC15579, BHIS, anaerobic, duplicate
[10] = tested on: B. fragilis Strain CL05T00C42; assay: MIC by broth microdilution; type: cell-based; details: Bacteroides fragilis; B. fragilis CL05T00C42; supplemented Brucella broth, anaerobic; duplicate; read-out: MIC
P. nigrescens ATCC 33563 = assay: MIC by broth microdilution; type: cell-based; details: Prevotella nigrescens, ATCC33563; P. nigrescens ATCC 33563; supplemented Brucella broth, anaerobic; duplicate; read-out: MIC
[11] = tested on: C. difficile isolate 20110566 (ribotype 020); assay: MIC by broth microdilution; type: cell-based, Clostridium difficile; details: Clostridioides difficile; isolate 20110566, ribotype 020; duplicate; read-out: MIC
[12] = tested on: C. difficile isolate 20110740 (ribotype 018); assay: MIC by broth microdilution; type: cell-based, Clostridium difficile; details: Clostridioides difficile; isolate 20110740, ribotype 018; duplicate; read-out: MIC
[13] = tested on: C. difficile isolate 20110742 (ribotype 002); assay: MIC by broth microdilution; type: cell-based, Clostridium difficile; details: Clostridioides difficile; isolate 20110742, ribotype 002; duplicate; read-out: MIC
[14] = tested on: C. difficile isolate 20120016 (ribotype 019); assay: MIC by broth microdilution; type: cell-based, Clostridium difficile; details: Clostridioides difficile; isolate 20120016, ribotype 019; duplicate; read-out: MIC
[15] = tested on: C. difficile isolate 20121190 (ribotype 126); assay: MIC by broth microdilution; type: cell-based, Clostridium difficile; details: Clostridioides difficile; isolate 20121190, ribotype 126; duplicate; read-out: MIC
[16] = tested on: C. difficile isolate 20110973 (ribotype 106); assay: MIC by broth microdilution; type: cell-based, Clostridium difficile; details: Clostridioides difficile; isolate 20110973, ribotype 106; duplicate; read-out: MIC
16 C. difficile isolates = assay: MIC by broth microdilution, summary over 16 C. difficile isolates; type: cell-based, Clostridium difficile; details: n = 2; for MIC50 / MIC90: Clostridioides difficile; for MIC50: MIC at which 50% of the 16 isolates are inhibited, read-out: MIC50; for MIC90: MIC at which 90% of the 16 isolates are inhibited, read-out: MIC90; for MIC Range: range over 16 C. difficile isolates
[17] = tested on: C. difficile isolate 20110986 (ribotype 078); assay: MIC by broth microdilution; type: cell-based, Clostridium difficile; details: Clostridioides difficile; isolate 20110986, ribotype 078; duplicate; read-out: MIC
[18] = tested on: C. difficile isolate 20100422 (ribotype 054); assay: MIC by broth microdilution; type: cell-based, Clostridium difficile; details: Clostridioides difficile; isolate 20100422, ribotype 054; duplicate; read-out: MIC
[19] = tested on: C. difficile isolate 20110961 (ribotype A12); assay: MIC by broth microdilution; type: cell-based, Clostridium difficile; details: Clostridioides difficile; isolate 20110961, ribotype A12; duplicate; read-out: MIC
[20] = tested on: C. difficile isolate 20121412 (ribotype 047); assay: MIC by broth microdilution; type: cell-based, Clostridium difficile; details: Clostridioides difficile; isolate 20121412, ribotype 047; duplicate; read-out: MIC
[21] = tested on: C. difficile isolate 20111163 (ribotype 024); assay: MIC by broth microdilution; type: cell-based, Clostridium difficile; details: Clostridioides difficile; isolate 20111163, ribotype 024; duplicate; read-out: MIC
[22] = tested on: C. difficile isolate 20100584 (ribotype 014); assay: MIC by broth microdilution; type: cell-based, Clostridium difficile; details: Clostridioides difficile; isolate 20100584, ribotype 014; duplicate; read-out: MIC
[23] = tested on: C. difficile isolate 20110869 (ribotype 001_072); assay: MIC by broth microdilution; type: cell-based, Clostridium difficile; details: Clostridioides difficile; isolate 20110869, ribotype 001_072; duplicate; read-out: MIC
Hemolysis assay = type: cell-based; details: sheep, sheep red blood cells (3% suspension), pH 7.4; 32 µg/mL, 1 h, 37 °C; 1% Triton X-100 positive control; triplicate; read-out: Hemolysis (%)
Protocol: Sheep red blood cells (Innovative Research, Novi, MI, USA) were washed three times with PBS pH 7.4. A 3% cell suspension in PBS (100 μL) was added to test compounds in PBS (100 μL, to a final concentration of 32 μg/mL), and then incubated at 37 °C for 1 h. The plate was centrifuged at 500 × g for 10 min, and supernatants (100 μL) were transferred to a clean 96-well plate. Hemolysis was determined by measuring absorbance at 540 nm, with 1% Triton X-100 as the positive control and 0.5% DMSO in PBS as the negative control. Hemolysis assays were performed in triplicate.

[24] = tested on: C. difficile isolate 20110960 (ribotype 017); assay: MIC by broth microdilution; type: cell-based, Clostridium difficile; details: Clostridioides difficile; isolate 20110960, ribotype 017; duplicate; read-out: MIC

Compound: O=C(Nc1ccc(Oc2ccc(Cl)cc2)cc1)c1cc(I)cc(I)c1 [Compound 5i]
- MIC (P. aeruginosa PAO1): > 32 µg/mL
- MIC (S. epidermidis 1457): > 32 µg/mL
- MIC [1]: > 32 µg/mL
- MIC [2]: > 32 µg/mL
- MIC (P. distasonis ATCC 8503): > 32 µg/mL
- MIC [3]: > 32 µg/mL
- MIC ([4]; Clostridioides difficile, ATCCBAA1382, BHIS broth, anaerobic, 20–24 h, n = 2): > 32 µg/mL
- in vitro activity against CD630 (in words) ([4]; growth inhibition, MIC assay): inactive
- antibacterial activity (in words) [5]: lacked antibacterial activity
- MIC [6]: > 32 µg/mL
- MIC [7]: > 32 µg/mL
- MIC (B. subtilis ATCC 6051): > 32 µg/mL
- MIC (L. plantarum ATCC 8014): > 32 µg/mL
- MIC (S. aureus RN4220): > 32 µg/mL
- MIC (A. baumannii M2): > 32 µg/mL
- MIC [8]: > 32 µg/mL
- MIC ([9]; Clostridioides difficile, ATCCBAA1870, BHIS broth, anaerobic, 20–24 h, n = 2, read-out: MIC C. difficile 4118): > 32 µg/mL
- in vitro activity against CD4118 (in words) ([9]; growth inhibition, MIC assay): inactive
- MIC (C. sporogenes ATCC 15579): > 32 µg/mL
- MIC [10]: > 32 µg/mL
- MIC (P. nigrescens ATCC 33563): > 32 µg/mL

Compound: O=C(Nc1ccc([N+](=O)[O-])cc1Cl)c1cc(Cl)ccc1O [Niclosamide, niclosamide]
- MIC [11]: 1 µg/mL (≈ 3.06 µM)
- MIC [12]: 1 µg/mL (≈ 3.06 µM)
- MIC [13]: 1 µg/mL (≈ 3.06 µM)
- MIC [14]: 0.5 µg/mL (≈ 1.53 µM)
- MIC [15]: 0.5 µg/mL (≈ 1.53 µM)
- MIC [16]: 1 µg/mL (≈ 3.06 µM)
- MIC50 (16 C. difficile isolates): 1 µg/mL (≈ 3.06 µM)
- MIC90 (16 C. difficile isolates): 2 µg/mL (≈ 6.11 µM)
- MIC Range (16 C. difficile isolates): 0.5 to 4 µg/mL
- MIC [17]: 1 µg/mL (≈ 3.06 µM)
- MIC [18]: 0.5 µg/mL (≈ 1.53 µM)
- MIC [19]: 1 µg/mL (≈ 3.06 µM)
- MIC [20]: 1 µg/mL (≈ 3.06 µM)
- MIC [21]: 1 µg/mL (≈ 3.06 µM)
- MIC [22]: 0.5 µg/mL (≈ 1.53 µM)
- MIC [23]: 2 µg/mL (≈ 6.11 µM)
- hemolysis at 1 h, 32 µg/mL (Hemolysis assay): < 1%
- MIC [24]: 1 µg/mL (≈ 3.06 µM)

Compound: O=C(Nc1cc(Cl)cc(Cl)c1O)c1c(O)c(Cl)cc(Cl)c1Cl [Oxyclozanide, oxyclozanide]
- MIC [11]: 1 µg/mL (≈ 2.49 µM)
- MIC [12]: 1 µg/mL (≈ 2.49 µM)
- MIC [13]: 1 µg/mL (≈ 2.49 µM)
- MIC [14]: 0.5 µg/mL (≈ 1.25 µM)
- MIC [15]: 1 µg/mL (≈ 2.49 µM)
- MIC [16]: 1 µg/mL (≈ 2.49 µM)
- MIC50 (16 C. difficile isolates): 1 µg/mL (≈ 2.49 µM)
- MIC90 (16 C. difficile isolates): 1 µg/mL (≈ 2.49 µM)
- MIC Range (16 C. difficile isolates): 0.5 to 2 µg/mL
- MIC [17]: 1 µg/mL (≈ 2.49 µM)
- MIC [18]: 1 µg/mL (≈ 2.49 µM)
- MIC [19]: 1 µg/mL (≈ 2.49 µM)
- MIC [20]: 2 µg/mL (≈ 4.98 µM)
- MIC [21]: 0.5 µg/mL (≈ 1.25 µM)
- MIC [22]: 1 µg/mL (≈ 2.49 µM)
- MIC [23]: 0.5 to 1 µg/mL (≈ 1.25 to 2.49 µM)
- hemolysis at 1 h, 32 µg/mL (Hemolysis assay): < 1%
- MIC [24]: 0.5 µg/mL (≈ 1.25 µM)
